According to US20090142766A1, “METHODS FOR MEASURING THE METABOLISM OF CNS DERIVED BIOMOLECULES IN VIVO” (Washington University in St. Louis, priority 2007, published 2009):

Legend:
[1] = Aβ fractional synthesis and clearance rate in CSF (immunoprecipitation-MS/MS after ^13C6-leucine labeling); format: in vivo, human; settings: 6 healthy young participants
Description: Protein production and clearance are important parameters that are tightly regulated and reflect normal physiology as well as disease states. Previous studies of protein metabolism in humans have focused on whole body or peripheral body proteins, but not on proteins produced in the central nervous system (CNS). No methods were previously available to quantify protein production or clearance rates in the CNS of humans. Such a method would be valuable to assess not only Aβ production or clearance rates in humans but also the metabolism of a variety other proteins relevant to diseases of the CNS. In order to address critical questions about underlying AD pathogenesis and Aβ metabolism, a method for quantifying Aβ fractional synthesis rate (FSR) and fractional clearance rate (FCR) in vivo in the CNS of humans was developed.
For each sample of CSF collected, the ratio of labeled to unlabeled Aβ was determined by immunoprecipitation-MS/MS, as described above. […]
The fractional synthesis rate (FSR) was calculated using the standard formula, presented below: […]
The fractional clearance rate (FCR) was calculated by fitting the slope of the natural logarithm of the clearance portion of the labeled Aβ curve, according to the following formula: […]

[2] = Aβ clearance in cortex of APPswe/PS1deltaE9 double transgenic mice; format: in vivo; settings: cortex, 3, 6 and 18 hr after ^13C6-leucine 200 μg/g i.p.
Method: To measure the brain Aβ clearance rate in mice, the method developed to assess ApoE clearance described above in Example 4 was performed in APPswe/PS1deltaE9 double transgenic mice (line #85; Jackson Labs, Bar Harbor, Me.). After a bolus intraperitioneal injection of ^13C6-leucine (200 μg/g), cortical brain tissue was harvested at 3, 6, and 18 hr post-injection (n=3) and lysed (lysis buffer, 1% Triton with PBS). Aβ was immunoprecipitated with an Aβ monoclonal antibody (HJ5.2, directed to Aβ 13-28) and then analyzed by nano-LC-MS/MS as described above. […] The clearance rate of soluble Aβ from cortex of transgenic mice was very similar with that of Aβ from human CSF as described by Bateman et al. 2006, supra.

[3] = cited from earlier work

Aβ: endogenous amyloid-beta peptide (SEQ ID NO:1) produced in the CNS from amyloid precursor protein
average fractional clearance rate (FCR) ([1]; 24 to 36 hours): 8.3 %/hr
average fractional synthesis rate (FSR) ([1]; slope 6 to 15 hours): 7.6 %/hr
fractional clearance rate (FCR) of soluble cortical Aβ [2]: 7.62±1.25 % per hour
t1/2 in brain interstitial fluid [3]: 1 to 2 h
